Reference: US12263248B2, “Compounds and compositions for intracellular delivery of therapeutic agents” (ModernaTX, Inc., priority 2018, dated 2025)
“Also recorded” adds a separate entry of the source.

Experiments:
[1] = Apparent (surface) pKa of the LNP formulation (TNS assay); type: physicochemical
How it was run: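 LNP (0.04 mg/mL mRNA) mixed with TNS reagent in 21 buffers spanning about pH 3-12, in triplicate; fluorescence plotted against pH as sigmoidal curve. Apparent pKa taken as […] curve inflection point; validated in 1× PBS and 20 mM Tris w/8% sucrose.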

[2] = test system: IL-6, IP-10; test: Cytokine induction in mice upon intravenous administration; type: in vivo; parameters: Cytokine induction IL-6 / Cytokine induction IP-10: unit not given here; conditions: 0.5 mpk, 6 hours; for Cytokine induction IL-6 / Cytokine induction IP-10: intravenous; for IP-10 induction / IL-6 induction: i.v., in words
How it was run: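 Mice dosed intravenously with nanoparticle compositions at 0.5 mpk; serum cytokine concentrations (IL-6, IP-10) measured at 6 hours. MC3 formulation and PBS controls run alongside.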

[3] = test system: luciferase (Luc) mRNA; test: Luc expression in liver, lung, spleen and femur 6 hours after intravenous administration; type: in vivo; conditions: mice, 0.5 mpk; for Total Flux Femur / Total Flux Liver / Total Flux Lung / Total Flux Spleen: intravenous; for Flux in the liver: i.v., in words
How it was run: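 LNP-formulated mRNA given IV to mice (n=3) at 0.5 mpk; at 6 h, bioluminescence imaged ex vivo 15 min after IP D-luciferin (15 mg/mL, 200 μL), organs imaged within 25 min. Values are total flux by region of interest.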

[4] = Particle size and polydispersity index of nanoparticle compositions (Zetasizer Nano ZS); type: physicochemical; conditions: for PDI (Polydispersity index): lipid nanoparticle, ±SD within one assay run (Table 37)
How it was run: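 In 1×PBS, the compositions were sized on a Zetasizer Nano ZS, which also reported their polydispersity index.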

[5] = test system: luciferase (Luc) mRNA; test: Luc expression (total flux) after intramuscular administration; type: in vivo, mice; conditions: for Total flux, 0.001 mpk Dose / Total flux, 0.01 mpk Dose: 6 hours after intramuscular administration; for Novel lipid/MC3 expression ratio, 6 hr. time point, i.m. Luc: relative to MC3 formulation
How it was run: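 Mice given a single intramuscular dose of lipid nanoparticle formulations carrying modified Luc mRNA, alone or with H10 mRNA, at 0.001 or 0.01 mpk total. Luciferase expression recorded as total flux.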

[6] = lipid nanoparticle, ±SD within one assay run (Table 37)
[7] = Table 1A, lipid:DSPC:cholesterol:PEG-DMG 50:10:38.5:1.5 mol %
[8] = Table 1B, formulated with hEPO mRNA
[9] = Table 1C, compositions for subcutaneous administration
[10] = Table 1D, for subcutaneous administration, # formulated with hEPO mRNA

Row | Compound | pKa ([1]; Table 1A) | pKa [1, 6] | Cytokine induction IL-6 [2] | Cytokine induction IP-10 [2] | Total Flux Femur [3] | Total Flux Liver [3] | Total Flux Lung [3] | Total Flux Spleen [3] | PDI ([4]; Table 1A) | Size (nm) [4, 7] [nm] | PDI [4, 9] | Size (nm) [4, 9] [nm] | PDI (Polydispersity index) [4] | Total flux, 0.001 mpk Dose ([5]; Luc mRNA and H10 mRNA) [p/s] | Total flux, 0.01 mpk Dose ([5]; Luc mRNA and H10 mRNA) [p/s] | Novel lipid/MC3 expression ratio, 6 hr. time point, i.m. Luc ([5]; intramuscular) | pKa ([1]; Table 6) | IP-10 induction [2] | Fold increase in Luc expression relative to MC3, Intramuscular (0.001 mpk dose) ([5]; intramuscular) | Fold increase in Luc expression relative to MC3, Intramuscular (0.01 mpk dose) ([5]; intramuscular) | further results
1 | CCCCCCCCCCCOC(=O)CCCCCN(CCO)CCCCCCCC(=O)OC(CCCCCCCC)CCCCCCCC [Compound 25, Heptadecan-9-yl 8-((2-hydroxyethyl)(6-oxo-6-(undecyloxy)hexyl)amino)octanoate] | 6.68 | 6.68 ± 0.29 | 233.45 | 1194.13 | 4.40E+06 | 2.41E+09 | 1.51E+07 | 3.11E+07 | 0.10 | 85.8 | 0.16 | 76.3 | 0.10 ± 0.05 | 3.53E+06 | 9.96E+07 | 1.46 | – | – | – | – | PDI [4, 8]: 0.14; Size (nm) [4, 8]: 69.7 nm; PDI [4, 10]: 0.13; Size (nm) [4, 10]: 77.6 nm; PDI ([4]; nanoparticle composition with hEPO mRNA (Table 30)): 0.230
2 | CCCCCCCCCOC(=O)CCCCCCCN(CCO)CCCCCCCC(=O)OCCCCCCCCC [Compound 138, Dinonyl 8,8′-((2-hydroxyethyl)azanediyl)dioctanoate] | 7.39 | 7.39 ± 0.07 | 23.38 | 172.56 | 1.58E+05 | 3.66E+06 | 9.47E+04 | 4.04E+06 | <0.5 | 179.4 | – | – | 0.14 ± 0.05 | 2.72E+05 | 1.19E+06 | – | – | – | – | – | surface pKa ([1]; LNP, Example 26): > 7
3 | CCCCCCCCCOC(=O)CCCCCCCN(CCO)CCCCCCC(=O)OCC(CCCCCCCC)CCCCCCCC [Compound 143, Nonyl 8-((2-hydroxyethyl)(7-((2-octyldecyl)oxy)-7-oxoheptyl)amino)octanoate] | 6.47 | – | 6.245 | 209.63 | – | 1.76E+09 | 3.60E+07 | 1.42E+08 | 0.21 | 98.8 | – | – | – | – | – | 4.05 | – | – | – | – | AUC (p/s * h) ([5]; Table 3H, intramuscular, Luc): 2.29E+09 p/s * h; Lipid/MC3 AUC ([5]; Table 3H, intramuscular, Luc): 3.89
4 | CCCCCCCCCOC(=O)CCCCCCCN(CCCCO)CCCCCCCC(=O)OC(CCCCCCCC)CCCCCCCC [Compound 20, Heptadecan-9-yl 8-((4-hydroxybutyl)(8-(nonyloxy)-8-oxooctyl)amino) octanoate] | 6.87 | – | 126.83 | 2468.24 | 1.31E+07 | 1.84E+09 | 2.66E+07 | 1.43E+08 | 0.13 | 86.7 | 0.13 | 86.7 | – | 2.59E+07 | – | 2.21 | 6.87 | highest | 3.70 | 2.21 | Luc expression upon intramuscular administration ([5]; Luc mRNA and H10 mRNA, doses of 0.001 and 0.01 mpk, in words): highest expression at both dose levels; also recorded: equivalent expression to the high dose of MC3; fold increase in Luc expression over MC3 formulations ([5]; intramuscular administration, in words): highest fold increase
5 | CCCCCCCCCN(CCO)CCCCCCCC(=O)OC(CCCCCCCC)CCCCCCCC [Compound 3, Heptadecan-9-yl 8-((2-hydroxyethyl)(nonyl)amino)octanoate] | 6.72 | – | 282.88 | 2052.87 | 7.36E+06 | 1.39E+10 | 4.76E+07 | 1.47E+08 | 0.20 | 97.5 | – | – | – | 3.58E+06 | 4.95E+07 | – | 6.72 | highest | 0.51 | 1.13 | IL-6 induction [2]: highest; Flux in the liver [3]: highest
6 | CCCCCCCCC(CCCCCCCC)OC(=O)CCCCCCCN(CCO)CCCCCCCC(=O)OCC1CC1CCCCCC (stereo not shown) [Compound 28, Heptadecan-9-yl 8-((8-((2-hexylcyclopropyl)methoxy)-8-oxooctyl)(2-hydroxyethyl)amino)octanoate] | 6.04 | – | 17.47 | 283.13 | – | 1.22E+10 | 2.17E+08 | 1.80E+08 | 0.20 | 99.4 | – | – | – | 6.73E+05 | 5.56E+06 | – | – | – | – | – | IL-6 induction [2]: lowest; Flux in the liver [3]: highest
